According to US9765037B2, “Compositions and methods for treating toxoplasmosis, cryptosporidiosis, and other apicomplexan protozoan related diseases” (University of Washington Through its Center for …, priority 2010, dated 2017):
pEC50: −log10 of the molar value. ≈ marks a conversion by molar mass, not a printed value.

Key:
[1] = test system: glioma derived (SF539); conditions: human
[2] = target: PfCDPK1 (Plasmodium falciparum (isolate 3D7), UniProt P62344); assay: biochemical
[3] = test system: glioma derived (SF539); assay: Growth inhibition of human cell line SF539; conditions: 10 μM
[4] = test system: human fibroblast; assay: Human fibroblast replication / cytotoxicity (Alamar blue); format: cell-based
[5] = target: HckKD (Homo sapiens (Human), UniProt P08631); assay: Tyrosine kinase IC50, HckKD; format: biochemical; conditions: Table 9
[6] = test system: colorectal carcinoma (HC 2998); assay: Growth inhibition of human cell line HC 2998; conditions: 10 μM
[7] = target: PfCDPK4 (Plasmodium falciparum (isolate 3D7), UniProt Q8IBS5); assay: biochemical
[8] = test system: human promyelocytic leukemia (HL-60); assay: Growth inhibition of human cell line HL-60; conditions: 10 μM
[9] = Solubility in buffers of various pH; format: physicochemical; conditions: buffer, pH 6.5, aqueous buffer; read-out: Experimental Solubility pH 6.5
[10] = test system: human lymphocyte (CRL8155); assay: Growth inhibition of human cell line CRL8155; conditions: 10 μM

Chain of HckKD (P08631 262-515): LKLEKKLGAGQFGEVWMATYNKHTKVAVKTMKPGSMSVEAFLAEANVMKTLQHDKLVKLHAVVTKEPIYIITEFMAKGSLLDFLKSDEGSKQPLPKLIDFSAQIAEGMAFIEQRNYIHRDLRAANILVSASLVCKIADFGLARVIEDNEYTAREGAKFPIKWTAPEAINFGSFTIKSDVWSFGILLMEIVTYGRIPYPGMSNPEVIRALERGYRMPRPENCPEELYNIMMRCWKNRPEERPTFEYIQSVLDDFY

Q: For `Nc1ncnc2c1c(-c1ccc3cc(OCc4ccccc4)ccc3c1)nn2CC1CCNCC1` [Compound 34, 3-(6-(benzyloxy)naphthalen-2-yl)-1-(piperidin-4-ylmethyl)-1H-pyrazolo[3,4-d]pyrimidin-4-amine], which “Cell Toxicity LD50 SF539” value [1] is on record?
A: 6 µM

Q: What about the pEC50 [2] of the same compound?
A: 7.57

Q: What about the “Cell Toxicity SF539, % at 10 μM” value [3] of the same compound?
A: 104%

Q: What about the “Observed HFF Toxicity (T at concentration)” value [4] of the same compound?
A: T at 100 μM

Q: And the IC50 [5]?
A: 1.61 µM

Q: And the “Cell Toxicity HCC2998, % at 10 μM” value [6]?
A: 30% at 10 μM

Q: What about the pEC50 [7] of the same compound?
A: 7.52

Q: And the “Cell Toxicity HL60, % at 10 μM” value [8]?
A: <30% at 10 μM

Q: And the solubility [9]?
A: 23 µM (≈ 10.7 µg/mL)

Q: What about the “Cell Toxicity CRL8155, % at 10 μM” value [10] of the same compound?
A: <30% at 10 μM
